Assay results published in US12668599B2, “Heterobifunctional compounds and methods of treating disease” (Halda Therapeutics OpCo, Inc., priority 2023, dated 2026).

Assays:
[1] = test system: T-Rex 293 cell line SC3 cells having increased expression of androgen receptor protein due to exposure to doxycycline; assay: Cellular growth inhibition, T-Rex 293 SC3 cells with doxycycline-induced androgen receptor (CellTiter-Glo 2.0, 72 hours); assay type: cell-based; conditions: T-Rex 293 SC3 cells with 10 ng/ml doxycycline (increased androgen receptor expression), 72 hours, CellTiter-Glo 2.0
[2] = test system: T-Rex 293 cell line SC3 cells lacking increased expression of androgen receptor protein; assay: Cellular growth inhibition, T-Rex 293 SC3 cells without doxycycline (CellTiter-Glo 2.0, 72 hours); assay type: cell-based; conditions: T-Rex 293 SC3 cells not exposed to doxycycline (no increased androgen receptor expression)
[3] = test system: VCaP cells; assay: Cellular growth inhibition assay for VCaP cells (CellTiter-Glo 2.0, 72 hours); assay type: cell-based, human; conditions: CellTiter-Glo 2.0

Compound: COc1cc(O[C@H]2CC[C@H](NC(=O)c3cnc(N4CCC5(CCN(c6ccc(C7=N[C@@H](C)c8nnc(C)n8-c8sc(C)c(C)c87)cc6)CC5)C4)nc3)CC2)ccc1C#N [Compound I-37, N-((1r,4r)-4-(4-cyano-3-methoxyphenoxy)cyclohexyl)-2-(8-(4-((S)-2,3,6,9-tetramethyl-6H-thieno[3,2-f][1,2,4]triazolo[4,3-a][1,4]diazepin-4-yl)phenyl)-2,8-diazaspiro[4.5]decan-2-yl)pyrimidine-5-carboxamide]
- GI50 [1]: < 500 nM
- GI50 ([2]; 72 h): < 500 nM
- GI50 ([3]; Homo sapiens, VCaP, 72 h): < 500 nM

Compound: COc1cc(O[C@H]2CC[C@H](NC(=O)c3ccc(N4CCC5(CCN(c6ccc(C7=N[C@@H](C)c8nnc(C)n8-c8sc(C)c(C)c87)cc6)CC5)C4)nc3)CC2)ccc1C#N [Compound I-38]
- GI50 [1]: < 500 nM
- GI50 ([2]; 72 h): < 500 nM
- GI50 ([3]; Homo sapiens, VCaP, 72 h): < 500 nM

Compound: COc1cc(O[C@H]2CC[C@H](NC(=O)c3cnc(N4CCC5(CCN(c6ccc(C7=N[C@@H](C)c8nnc(C)n8-c8sc(C)c(C)c87)cc6)CC5)C4)cn3)CC2)ccc1C#N [Compound I-39, N-((1r,4r)-4-(4-cyano-3-methoxyphenoxy)cyclohexyl)-5-(8-(4-((S)-2,3,6,9-tetramethyl-6H-thieno[3,2-f][1,2,4]triazolo[4,3-a][1,4]diazepin-4-yl)phenyl)-2,8-diazaspiro[4.5]decan-2-yl) pyrazine-2-carboxamide]
- GI50 [1]: < 500 nM
- GI50 ([2]; 72 h): < 500 nM
- GI50 ([3]; Homo sapiens, VCaP, 72 h): < 500 nM

Compound: COc1cc(O[C@H]2CC[C@H](NC(=O)c3ccc(N4CC5(CC(C#Cc6ccc(C7=N[C@@H](C)c8nnc(C)n8-c8sc(C)c(C)c87)cc6)C5)C4)nn3)CC2)ccc1C#N [Compound I-40, N-[4-(4-cyano-3-methoxy-phenoxy)cyclohexyl]-6-[6-[2-[4-[(9S)-4,5,9,13-tetramethyl-3-thia-1,8,11,12-tetrazatricyclo[8.3.0.0^2,6]trideca-2 (6),4,7,10,12-pentaen-7-yl]phenyl]ethynyl]-2-azaspiro[3.3]heptan-2-yl]pyridazine-3-carboxamide]
- GI50 [1]: < 500 nM
- GI50 ([2]; 72 h): < 500 nM
- GI50 ([3]; Homo sapiens, VCaP, 72 h): < 500 nM

Compound: CC[C@@H]1N=C(c2ccc(C3CCC4(CC3)CCN(c3ccc(C(=O)NC5CCC(Oc6ccc(C#N)c(OC)c6)CC5)nn3)C4)cc2)c2c(sc(C)c2C)-n2c(C)nnc21 (stereo partly drawn) [Compound I-41, N-((1r,4r)-4-(4-cyano-3-methoxyphenoxy)cyclohexyl)-6-(8-(4-((S)-6-ethyl-2,3,9-trimethyl-6H-thieno[3,2-f][1,2,4]triazolo[4,3-a][1,4]diazepin-4-yl)phenyl)-2-azaspiro[4.5]decan-2-yl) pyridazine-3-carboxamide]
- GI50 [1]: < 500 nM
- GI50 [2]: < 500 nM
- GI50 ([3]; 72 hours): < 500 nM

Compound: COc1cc(O[C@H]2CC[C@H](NC(=O)c3ccc(N4CCC5(CCN(c6ccc(C7=N[C@@H](C)c8nnc(C)n8-c8sc(C)c(C)c87)c(F)c6)CC5)C4)nn3)CC2)ccc1C#N [Compound I-45, N-[4-(4-cyano-3-methoxy-phenoxy)cyclohexyl]-6-[8-[3-fluoro-4-[(9S)-4,5,9,13-tetramethyl-3-thia-1,8,11,12-tetrazatricyclo[8.3.0.0^2,6]trideca-2 (6),4,7,10,12-pentaen-7-yl]phenyl]-2,8-diazaspiro[4.5]decan-2-yl]pyridazine-3-carboxamide]
- GI50 [1]: < 500 nM
- GI50 ([2]; 72 h): < 500 nM
- GI50 ([3]; Homo sapiens, VCaP, 72 h): < 500 nM

Compound: COc1cc(O[C@H]2CC[C@H](NC(=O)c3ccc(N4CCC5(CCN(c6ccc(C7=N[C@@H](C)c8nnc(C)n8-c8sc(C)c(C)c87)cc6C)CC5)C4)nn3)CC2)ccc1C#N [Compound I-46, N-[4-(4-cyano-3-methoxy-phenoxy)cyclohexyl]-6-[8-[2-methyl-4-[(9S)-4,5,9,13-tetramethyl-3-thia-1,8,11,12-tetrazatricyclo[8.3.0.0^2,6]trideca-2 (6),4,7,10,12-pentaen-7-yl]phenyl]-2,8-diazaspiro[4.5]decan-2-yl]pyridazine-3-carboxamide]
- GI50 [1]: < 500 nM
- GI50 ([2]; 72 h): < 500 nM
- GI50 ([3]; Homo sapiens, VCaP, 72 h): < 500 nM

Compound: COc1cc(O[C@H]2CC[C@H](NC(=O)c3ccc(N4C[C@H]5CN(c6ccc(C7=N[C@@H](C)c8nnc(C)n8-c8sc(C)c(C)c87)cc6)C[C@H]5C4)nn3)CC2)ccc1C#N [Compound I-47]
- GI50 [1]: < 500 nM
- GI50 ([2]; 72 h): < 500 nM
- GI50 ([3]; Homo sapiens, VCaP, 72 h): < 500 nM

Compound: COc1cc(O[C@H]2CC[C@H](NC(=O)c3ccc(N4C[C@]5(C)CN(c6ccc(C7=N[C@@H](C)c8nnc(C)n8-c8sc(C)c(C)c87)cc6)C[C@]5(C)C4)nn3)CC2)ccc1C#N [Compound I-48]
- GI50 [1]: < 500 nM
- GI50 ([2]; 72 h): < 500 nM
- GI50 ([3]; Homo sapiens, VCaP, 72 h): < 500 nM

Compound: COc1cc(O[C@H]2CC[C@H](NC(=O)c3ccc(N4CCC5(CCC(Oc6ccc(C7=N[C@@H](C)c8nnc(C)n8-c8sc(C)c(C)c87)cc6)C5)C4)nn3)CC2)ccc1C#N (stereo partly drawn) [Compound I-50]
- GI50 [1]: < 500 nM
- GI50 ([2]; 72 h): < 500 nM
- GI50 ([3]; Homo sapiens, VCaP, 72 h): < 500 nM

Compound: COc1cc(O[C@H]2CC[C@H](NC(=O)c3ccc(N4CCC5(CCC(Oc6ccc(C7=N[C@@H](C)c8nnc(C)n8-c8sc(C)c(C)c87)cc6)C5)C4)nn3)CC2)ccc1C#N (stereo partly drawn) [Compound I-51]
- GI50 [1]: < 500 nM
- GI50 [2]: < 500 nM
- GI50 ([3]; 72 hours): < 500 nM

Compound: COc1cc(O[C@H]2CC[C@H](NC(=O)c3ccc(N4CCC5(CCC(Oc6ccc(C7=N[C@@H](C)c8nnc(C)n8-c8sc(C)c(C)c87)cc6)C5)C4)nn3)CC2)ccc1C#N (stereo partly drawn) [Compound I-52]
- GI50 [1]: < 500 nM
- GI50 [2]: < 500 nM
- GI50 ([3]; 72 hours): < 500 nM

Compound: COc1cc(O[C@H]2CC[C@H](NC(=O)c3ccc(N4CCC5(CCC(c6ccc(C7=N[C@@H](C)c8nnc(C)n8-c8sc(C)c(C)c87)cc6)CC5)C4)cn3)CC2)ccc1C#N (stereo partly drawn) [Compound I-53]
- GI50 [1]: < 500 nM
- GI50 ([2]; 72 h): < 500 nM
- GI50 ([3]; Homo sapiens, VCaP, 72 h): < 500 nM

Compound: COc1cc(O[C@H]2CC[C@H](NC(=O)c3cnc(N4CCC5(CCC(c6ccc(C7=N[C@@H](C)c8nnc(C)n8-c8sc(C)c(C)c87)cc6)CC5)C4)cn3)CC2)ccc1C#N (stereo partly drawn) [Compound I-54, N-[4-(4-cyano-3-methoxy-phenoxy)cyclohexyl]-5-[8-[4-[(9S)-4,5,9,13-tetramethyl-3-thia-1,8,11,12-tetrazatricyclo[8.3.0.0^2,6]trideca-2 (6),4,7,10,12-pentaen-7-yl]phenyl]-2-azaspiro[4.5]decan-2-yl]pyrazine-2-carboxamide]
- GI50 [1]: < 500 nM
- GI50 ([2]; 72 h): < 500 nM
- GI50 ([3]; Homo sapiens, VCaP, 72 h): < 500 nM

Compound: COc1cc(O[C@H]2CC[C@H](NC(=O)c3ccc(N4CCC5(CCN(c6ccc(C7=N[C@@H](C)c8nnc(C)n8-c8sc(C)c(C)c87)cc6)CC5)C4)cc3)CC2)ccc1C#N [Compound I-55]
- GI50 [1]: < 500 nM
- GI50 ([2]; 72 h): < 500 nM
- GI50 ([3]; Homo sapiens, VCaP, 72 h): < 500 nM

Compound: COc1cc(O[C@H]2CC[C@H](NC(=O)c3ccc(N4CCC5(CCC(c6ccc(C7=N[C@@H](C)c8nnc(C)n8-c8sc(C)c(C)c87)c(F)c6)CC5)C4)nn3)CC2)ccc1C#N (stereo partly drawn) [Compound I-59]
- GI50 [1]: < 500 nM
- GI50 ([2]; 72 h): < 500 nM
- GI50 ([3]; Homo sapiens, VCaP, 72 h): < 500 nM

Compound: COc1cc(O[C@H]2CC[C@H](NC(=O)c3ccc(N4CCC5(CCC(c6ccc(C7=N[C@@H](C)c8nnc(C)n8-c8sc(C)c(C)c87)cc6C)CC5)C4)nn3)CC2)ccc1C#N (stereo partly drawn) [Compound I-60]
- GI50 [1]: < 500 nM
- GI50 ([2]; 72 h): < 500 nM
- GI50 ([3]; Homo sapiens, VCaP, 72 h): < 500 nM

Compound: COc1cc(O[C@H]2CC[C@H](NC(=O)c3ccc(N4CCC5(CCC(c6ccc(C7=N[C@@H](C)c8nnc(C)n8-c8sc(C)c(C)c87)cc6C)CC5)C4)nn3)CC2)ccc1C#N (stereo partly drawn) [Compound I-61]
- GI50 [1]: < 500 nM
- GI50 [2]: < 500 nM
- GI50 ([3]; 72 hours): < 500 nM

Compound: COc1cc(O[C@H]2CC[C@H](NC(=O)c3ccc(N4CCC5(CCC(c6ccc(C7=N[C@@H](C)c8nnc(C)n8-c8sc(C)c(C)c87)c(C)c6)CC5)C4)nn3)CC2)ccc1C#N (stereo partly drawn) [Compound I-63]
- GI50 [1]: < 500 nM
- GI50 ([2]; 72 h): < 500 nM
- GI50 ([3]; Homo sapiens, VCaP, 72 h): < 500 nM

Compound: COc1cc(O[C@H]2CC[C@H](NC(=O)c3ccc(N4CCC5(CCC(c6ccc(C7=N[C@@H](C)c8nnc(C)n8-c8sc(C)c(C)c87)c(Cl)c6)CC5)C4)nn3)CC2)ccc1C#N (stereo partly drawn) [Compound I-65]
- GI50 [1]: < 500 nM
- GI50 ([2]; 72 h): > 3000 nM
- GI50 ([3]; Homo sapiens, VCaP, 72 h): 500 to 1500 nM

Compound: COc1cc(O[C@H]2CC[C@H](NC(=O)c3ccc(N4CCC5(CCC(c6ccc(C7=N[C@@H](C)c8nnc(C)n8-c8sc(C)c(C)c87)cc6OC)CC5)C4)nn3)CC2)ccc1C#N (stereo partly drawn) [Compound I-67]
- GI50 [1]: < 500 nM
- GI50 [2]: < 500 nM
- GI50 ([3]; 72 hours): < 500 nM

Compound: COc1cc(O[C@H]2CC[C@H](NC(=O)c3ccc(N4CCC5(CCC(c6ccc(C7=N[C@@H](C)c8nnc(C)n8-c8sc(C)c(C)c87)c(OC)c6)CC5)C4)nn3)CC2)ccc1C#N (stereo partly drawn) [Compound I-68]
- GI50 [1]: < 500 nM
- GI50 ([2]; 72 h): < 500 nM
- GI50 ([3]; Homo sapiens, VCaP, 72 h): < 500 nM

Compound: COc1cc(O[C@H]2CC[C@H](NC(=O)c3ccc(N4CCC5(CCC(c6ccc(C7=N[C@@H](C)c8nnc(C)n8-c8sc(C)c(C)c87)c(OC)c6)CC5)C4)nn3)CC2)ccc1C#N (stereo partly drawn) [Compound I-69]
- GI50 [1]: < 500 nM
- GI50 [2]: < 500 nM
- GI50 ([3]; 72 hours): < 500 nM

Compound: COc1cc(O[C@H]2CC[C@H](NC(=O)c3ccc(N4CCC5(CCN(c6ccc(C7=N[C@@H](C)c8nnc(C)n8-c8sc(C)c(C)c87)cc6)CC5)C4)nn3)CC2)ccc1C#N [Compound I-70]
- GI50 [1]: < 500 nM
- GI50 ([2]; 72 h): < 500 nM
- GI50 ([3]; Homo sapiens, VCaP, 72 h): < 500 nM

Compound: COc1cc(O[C@H]2CC[C@H](NC(=O)c3ccc(N4CCC5(CCN(c6ccc(C7=N[C@@H](C)c8nnc(C)n8-c8sc(C)c(C)c87)cc6)CC5)C4)nn3)CC2)ccc1C#N [Compound I-71]
- GI50 [1]: < 500 nM
- GI50 [2]: < 500 nM
- GI50 ([3]; 72 hours): < 500 nM

Compound: COc1cc(O[C@H]2CC[C@H](NC(=O)c3ccc(N4CCC5(CCN(c6ccc(C7=N[C@@H](C)c8nnc(C)n8-c8sc(C)c(C)c87)c(C)c6)CC5)C4)nn3)CC2)ccc1C#N [Compound I-72]
- GI50 [1]: < 500 nM
- GI50 ([2]; 72 h): < 500 nM
- GI50 ([3]; Homo sapiens, VCaP, 72 h): < 500 nM
